≈ marks a conversion by molar mass, not a printed value.
Assays:
[1] = system: Staphylococcus epidermidis EP11; type: cell-based; details: agar dilution
[2] = system: Staphylococcus epidermidis 222; type: cell-based; details: agar dilution
[3] = system: Streptococcus pyogenes C203; type: cell-based; details: agar dilution
[4] = system: Streptococcus pneumoniae Park 1; type: cell-based; details: agar dilution
[5] = system: Streptococcus faecium ATCC 9790; type: cell-based; details: agar dilution
[6] = system: Streptococcus sp. group D 2041; type: cell-based; details: agar dilution
[7] = system: Haemophilus influenzae C.L.; type: cell-based; details: agar dilution
[8] = system: Haemophilus influenzae 76; type: cell-based; details: agar dilution
Escherichia coli N10 = type: cell-based; details: agar dilution
Escherichia coli EC14 = type: cell-based; details: agar dilution
Escherichia coli TEM = type: cell-based; details: agar dilution
Klebsiella pneumonia X26 = type: cell-based; details: agar dilution
Klebsiella pneumonia X68 = type: cell-based; details: agar dilution
Klebsiella pneumonia KAE = type: cell-based; details: agar dilution
[9] = system: Clostridium difficile 2994; type: cell-based; details: agar dilution, read after 24 hrs
Protocol: (§1) | read after 24hrs. incubation.

[10] = system: Clostridium septicum 1128; type: cell-based; details: agar dilution, read after 24 hrs
Protocol: as §1

[11] = system: Clostridium perfringens 81; type: cell-based; details: agar dilution, read after 24 hrs
[12] = system: Eubacterium aerofaciens 1235; type: cell-based; details: agar dilution, read after 24 hrs
[13] = system: Peptococcus asaccharolyticus 1302; type: cell-based; details: agar dilution, read after 24 hrs
[14] = system: Peptostreptococcus anaerobius 1428; type: cell-based; details: agar dilution, read after 24 hrs
[15] = system: Peptostreptococcus intermedius 1264; type: cell-based; details: agar dilution, read after 24 hrs
[16] = system: Propionibacterium acnes 79; type: cell-based; details: agar dilution, read after 24 hrs
Bacteroides fragilis 111 = type: cell-based; details: agar dilution, read after 24 hrs
[17] = system: Bacteroides fragilis 1877; type: cell-based; details: agar dilution, read after 24 hrs
[18] = system: Bacteroides fragilis 1936B; type: cell-based; details: agar dilution, read after 24 hrs
[19] = system: Bacteroides thetaiotaomicron 1438; type: cell-based; details: agar dilution, read after 24 hrs
[20] = system: Bacteroides melaninogenicus 1856/28; type: cell-based; details: agar dilution, read after 24 hrs
[21] = system: Bacteroides melaninogenicus 2736; type: cell-based; details: agar dilution, read after 24 hrs
[22] = system: Bacteroides vulgatis 1211; type: cell-based; details: agar dilution, read after 24 hrs
[23] = system: Bacteroides corrodens 1874; type: cell-based; details: agar dilution, read after 24 hrs
[24] = system: Fusobacterium symbiosum 1470; type: cell-based; details: agar dilution, read after 24 hrs
[25] = system: Fusobacterium necrophorum 6054A; type: cell-based; details: agar dilution, read after 24 hrs
Staphylococcus aureus = assay: experimental bacterial infection in mice, ED50; type: in vivo; details: subcutaneous, two doses
Protocol: (§2) The formula 1 compounds have also shown in vivo antimicrobial activity against experimental bacterial infections. When two doses of test compound were administered to mice in experimental infections, the activity observed was measured as an ED50 value [effective dose in mg/kg to protect 50% of the test animals: see Warren Wick, et al., J. Bacteriol. 81, 233-235 (1961)].

Streptococcus pneumoniae = assay: experimental bacterial infection in mice, ED50; type: in vivo; details: subcutaneous, two doses
Protocol: as §2

Streptococcus pyogenes = assay: experimental bacterial infection in mice, ED50; type: in vivo; details: subcutaneous, two doses
Protocol: as §2

[26] = system: gram-positive microorganisms; assay: in vitro antibacterial activity (general statement); type: cell-based; details: statement in words
[27] = system: Staphylococcus aureus NRRL B313; details: agar dilution
[28] = system: Staphylococcus aureus V41; details: agar dilution
[29] = system: Staphylococcus aureus X400; details: agar dilution
Peptococcus prevoti 1281 = details: agar dilution, read after 24 hrs

`CN[C@H](CC(C)C)C(=O)N[C@H]1C(=O)N[C@@H](CC(N)=O)C(=O)N[C@H]2C(=O)N[C@H]3C(=O)N[C@H](C(=O)N[C@H](C(=O)O)c4cc(O)cc(O)c4-c4cc3ccc4O)[C@H](O)c3ccc(c(Cl)c3)Oc3cc2cc(c3O)Oc2ccc(cc2Cl)[C@H]1O` [Compound 10, aglucovancomycin] was tested, and the MIC [1] was 2 µg/mL (≈ 1.75 µM), the MIC [2] was 1 µg/mL (≈ 0.874 µM) and the MIC [3] was 0.5 µg/mL (≈ 0.437 µM). For the same molecule, the MIC [4] was 0.5 µg/mL (≈ 0.437 µM), the MIC [5] was 1 µg/mL (≈ 0.874 µM) and the MIC [6] was 64 µg/mL (≈ 55.9 µM). For the same molecule, the MIC [7] was 64 µg/mL (≈ 55.9 µM), the MIC [8] was 64 µg/mL (≈ 55.9 µM) and the MIC (Escherichia coli N10) was > 128 µg/mL. The MIC (Escherichia coli EC14) was > 128 µg/mL, the MIC (Escherichia coli TEM) was 64 µg/mL (≈ 55.9 µM) and the MIC (Klebsiella pneumonia X26) was > 128 µg/mL. For the same molecule, the MIC (Klebsiella pneumonia X68) was > 128 µg/mL, the MIC (Klebsiella pneumonia KAE) was > 128 µg/mL and the MIC [9] was 8 µg/mL (≈ 6.99 µM). It also gave an MIC [10] of 8 µg/mL (≈ 6.99 µM), an MIC [11] of 8 µg/mL (≈ 6.99 µM) and an MIC [12] of 128 µg/mL (≈ 112 µM). For the same molecule, the MIC [13] was 64 µg/mL (≈ 55.9 µM), the MIC [14] was 32 µg/mL (≈ 28 µM) and the MIC [15] was > 128 µg/mL. For the same molecule, the MIC [16] was 8 µg/mL (≈ 6.99 µM), the MIC (Bacteroides fragilis 111) was > 128 µg/mL and the MIC [17] was 128 µg/mL (≈ 112 µM). The MIC [18] was > 128 µg/mL, the MIC [19] was > 128 µg/mL and the MIC [20] was > 128 µg/mL. For the same molecule, the MIC [21] was 128 µg/mL (≈ 112 µM), the MIC [22] was 128 µg/mL (≈ 112 µM) and the MIC [23] was > 128 µg/mL. For the same molecule, the MIC [24] was 8 µg/mL (≈ 6.99 µM), the MIC [25] was 2 µg/mL (≈ 1.75 µM) and the ED50 (Staphylococcus aureus) was 8.75 mg/kg/2. For the same molecule, the ED50 (Streptococcus pneumoniae) was 16.54 mg/kg/2, the ED50 (Streptococcus pyogenes) was 22.3 mg/kg/2 and the antibacterial activity [26] was “good in vitro antibacterial activity”. The MIC [27] was 0.5 µg/mL (≈ 0.437 µM), the MIC [28] was 1 µg/mL (≈ 0.874 µM) and the MIC [29] was 1 µg/mL (≈ 0.874 µM). For the same molecule, the MIC (Peptococcus prevoti 1281) was 8 µg/mL (≈ 6.99 µM).

Reference: patent US4552701A, “Glycopeptide antibiotics and process of preparation” (Eli Lilly and Company, priority 1984, dated 1985)
